From PMC9115111, “Metalloprotease Gp63-Targeting Novel Glycoside Exhibits Potential Antileishmanial Activity” (Frontiers in Cellular and Infection Microbiology, 2022) come the findings set out here.

Several values for one entry are separate records, joined by “and”; a condition that tells them apart may be missing. Identical values can stand only once.

In data set [1] the test system is L. donovani promastigotes (AG83 strain). Nature of the data set: LDH cytotoxicity assay on promastigotes, AG83 strain. Particulars: Leishmania donovani; Table 1; activity against promastigotes. The class given is cell-based, Leishmania donovani. The protocol: Promastigote forms of L. donovani (MHOM/IN/1983/AG83) were cultured at 26°C in M199 (GIBCO, India), pH 7.4, supplemented with 10% (v/v) inactivated fetal bovine serum (FBS, GIBCO, India) and 0.02 mg/ml gentamycin (Life Technologies, USA). The clinical isolate of PKDL, BS12, was obtained as a gift from Prof. Mitali Chatterjee [Department of Pharmacology, Institute of Postgraduate Medical Education and Research (IPGMER), Kolkata, India]. BS12 was routinely cultured at 22°C in M199 (GIBCO, India) with 100 U/ml penicillin-streptomycin (Gibco, Invitrogen, Thermo Fisher Scientific, NY, USA), 8 μM hemin (4 mM stock made in 50% triethanolamine) (Sigma, USA), 25 mM 4-(2-hydroxyethyl)-1-piperazineethanesulfonic acid (HEPES), supplemented with 10% heat-inactivated FBS (GIBCO, India). Cultures were maintained between 10^6 and 10^7 cells/ml for continuous exponential growth. In addition, 1 × 10^6 cells/ml parasite count was constantly maintained for all the experiments ([Ramu et al., 2017]).
(§1) All the compounds were dissolved in dimethyl sulfoxide (DMSO) (Sigma-Aldrich) for 1 mM stock solution and were screened against promastigotes at a concentration of 5 µM. For Glycosides (Gly) 2, 6, and 8, a range of concentrations starting from 100 nM to 100 µM were screened against promastigote forms of parasite and mammalian cells. Parasites (AG83 and PKDL strain) treated with amphotericin B (3 µg/ml) (Sigma-Aldrich) were maintained as the positive control.
AG83 strain of L. donovani were exposed to various Gly compound concentrations (100 nM–100 µM) in a 96-well microtiter plate (100 µl/well volume) and were incubated for 72 h at 26°C. Finally, lactate dehydrogenase (LDH) cytotoxic assay was performed as per standard protocol (CytoTox 96 Non-Radioactive Cytotoxicity Assay-Promega, USA). The percent cytotoxicity of test compounds was calculated by normalizing with amphotericin B as 100%. Further percentage growth inhibition was calculated using the formula:
% Growth Inhibition = Gly treated LDH activity- Spontaneous LDH activity
/Maximum LDH activity- Spontaneous LDH activity * 100
As per the formula, the spontaneous LDH Activity = activity of the untreated cells and the maximum LDH activity = activity of the amphotericin B-treated cells. IC50 value for Gly2, 6, and 8 treated was generated for AG83 and PKDL strain of L. donovani using sigmoidal dose–response model with nonlinear regression tool ([Ramu et al., 2017]).

Data set [2] in a line: MTT cell viability assay on macrophages. The class given is cell-based, murine. The conditions noted are these: mouse, J774.A1 macrophage cells; Table 1; macrophages. The protocol:
(§2) The J774.A1 murine macrophage cells were grown in Roswell Park Memorial Institute (RPMI) 1640 medium in the presence of 10% (v/v) FBS and 100 U/ml penicillin−100 µg/ml streptomycin (Gibco, Invitrogen, Thermo Fisher Scientific, NY, USA) at 37°C (humidified) and 5% CO2. […] Madin–Darby canine kidney (MDCK) cells were obtained from the National Centre for Cell Science, Pune, India. MDCK cells were derived from the kidney tissue of an adult female Cocker Spaniel. These were grown in Dulbecco’s modified Eagle’s minimal essential medium (DMEM) in the presence of 10% (v/v) FBS and 100 U/ml penicillin−100 µg/ml streptomycin (Gibco, Invitrogen, Thermo Fisher Scientific, NY, USA) at 37°C (humidified) and 5% CO2 ([Ayana et al., 2018]; [Shivappagowdar et al., 2021]).
as §1
To evaluate the cytotoxic effects of 12 compounds on L. donovani promastigotes, LDH assay was performed. This assay involves the reduction of tetrazolium salts to formazan during LDH-mediated catalysis of lactate to pyruvate, which can be detected at […]. Rate of formazan formation is proportional to the release of LDH through damaged cell membranes. For the preliminary screening, the promastigotes were incubated with 12 compounds at a single concentration of 5 µM for a period of 72 h, and the released LDH was estimated ( Supplementary Figure S1A ). Amphotericin B-treated promastigotes were taken as the positive control. […] Having observed the antileishmanial effect of Gly2 on growth and proliferation of promastigotes, we next investigated the cytotoxicity of Gly2 on mammalian cells (MDCK, J774.1A) through MTT (3-(4, 5-dimethylthiazolyl-2)-2, 5-diphenyltetrazolium bromide) cell viability assay ( Supplementary Figures S1B, C ). […] The CC50 values of Gly2 analog was in the micromolar range. The selectivity index (SI) for the compound was calculated as the ratio between cytotoxicity (CC50) and activity (IC50) against promastigotes ( Table 1 ).
On the technique in general: Tetrazolium assays rely on reduction of a dye to a coloured formazan, in cell work by metabolically active cells.

Data set [3] deals with L. donovani promastigotes. The data set can be described thus: Hoechst/PI live/dead dual staining of promastigotes. The class given is cell-based, Leishmania donovani. Particulars: 5 µM, 72 h. The protocol: The toxic effect of the three compounds, Gly2, 6, and 8 on promastigotes at 5 µM >IC50 concentration was measured by Hoechst and propidium iodide (PI) double staining. […], parasites were harvested, washed in 0.01 M PBS (pH = 7.4), and stained with Hoechst 33258 (1 µg/ml) (Life Technologies, USA) and PI (5 µg/ml) (Life Technologies, USA) followed by incubation for a period of 20 min at 37°C. Subsequently, cells were washed for excessive stain removal and visualized using fluorescence microscope with 510–560-nm filter block for PI red fluorescence and excitation/emission spectra at 361/497 for Hoechst ([López-Arencibia et al., 2015]).

In a further data set the test system is AG83 promastigotes. The data set can be described thus: CFDA-SE promastigote proliferation assay (FACS). The class given is cell-based, Leishmania donovani. Particulars: 5 µM. The protocol: AG83 parasite growth and multiplication were assessed by fluorescence-activated cell sorting and fluorescence microscopy with 6-carboxyfluorescein diacetate succinimidyl ester (CFDA-SE, Life Technologies, USA) as a probe. Promastigotes were washed thrice with PBS. The cells were labeled with CFDA-SE dye and were then incubated at 37°C for 10 min. These cells were then resuspended in ice-cold M199 medium. Furthermore, they were centrifuged at 1,200 g for 10 min (4°C) and resuspended in fresh medium. Cells were treated with the Gly2 and were analyzed through BD FACS DIVA for 3 consecutive replicates after 0, 24, 48, and 72 h, respectively ([Messaritakis et al., 2010]).

Data set [4] has as its system L. donovani promastigotes. Nature of the data set: Complement-mediated cytolysis of promastigotes by PI uptake (10% NHS). The format is cell-based, Leishmania donovani. The protocol: Parasites with an optimum 10% non-heat-inactivated normal human serum (NHS) were incubated with Gly2 at 5-µM concentration for 15 min. Promastigote lysis was detected by uptake of PI, by use of a FACS Diva flow cytometer (Beckton-Dickinson, Pharmingen), in accordance with the manufacturer’s protocol. Promastigotes were washed for excessive stain removal and filter block for PI red fluorescence, 510–560 nm was used ([Moreno et al., 2010]).

For another data set, the system named is MDCK cells. Nature of the data set: MTT cell viability assay on MDCK cells. The format is cell-based. How it is done: as §2
All the compounds were dissolved in dimethyl sulfoxide (DMSO) (Sigma-Aldrich) for 1 mM stock solution and were screened against promastigotes at a concentration of 5 µM. […]
To evaluate the cytotoxic effects of 12 compounds on L. donovani promastigotes, LDH assay was performed. This assay involves the reduction of tetrazolium salts to formazan during LDH-mediated catalysis of lactate to pyruvate, which can be detected at 490 nM. […] The selectivity index (SI) for the compound was calculated as the ratio between cytotoxicity (CC50) and activity (IC50) against promastigotes ( Table 1 ).

What is called IC50 is the concentration at which inhibition is half-maximal. Read a low IC50 as greater potency. As a reminder, the CC50 is the concentration giving 50% cytotoxicity. In data set [1], `CC(C)CCOC1O[C@H](CO)[C@@H](O)[C@H](O)[C@H]1O` (stereo partly drawn) [Gly2] gave an IC50 of 0.00113 mM. The molecule also returned a CC50 in data set [2] of 2.9 mM. Besides, the “dead parasites (PI positive)” value in data set [3] was ~ 94% and ~ 94.15% and ~ 90%. For the same molecule, the “percentage of CFDA-positive cells” value in the data set with AG83 promastigotes (24 h) is given as 81.59%; in the data set on AG83 promastigotes (48 h) it was 74.68%; with AG83 promastigotes (72 h), 68.48%. Moreover, the “promastigote death (PI uptake)” value in data set [4] (10% NHS, Gly2 at 5 µM where treated, control in 10% heat-inactivated FBS 0.06%) is recorded as ~ 80%. The “increment in PI uptake” value in data set [4] (Gly2 + 10% NHS vs 10% NHS alone) was 24.65%. For the same molecule, the “cytotoxicity in MDCK cells” value in the data set with MDCK cells is “minimum level of cytotoxicity”.
